Consider 44 compounds from PubChem BioAssay AID2305 (GlaxoSmithKline (GSK), 2010).

“And” between values parts separate entries of the source, which are not always exact repeats. Equal values may be shown once.

A word on the IC50: it is the concentration that inhibits the measured activity by half.

The assay concerns P. falciparum 3D7 growth, pLDH absorbance. Put plainly: blood-stage malaria parasite growth potency – strain 3D7, dose response (AID 2305).
Take `O=C(/C=C/c1ccc(Cl)c(Cl)c1)NCCCCCCN1CCN(C(=O)Nc2ccc(F)c(Cl)c2)CC1`: the 50% inhibitory concentration (IC50) came out at 0.94 µM.

Compound `N#Cc1ccc2c(c1)CCN(CCC1CCC(NC(=O)/C=C/c3c[nH]c4ccc(F)cc34)CC1)CC2` (centres undefined) displayed a concentration for half-maximal inhibition (IC50) of 0.69 µM.

Consider `Cc1ccccc1C1CCN(C2CCC(NC(=O)C3=Cc4ccccc4OC3)CC2)CC1` (centres undefined), for which the concentration for half-maximal inhibition (IC50) was found to be 0.93 µM.

Regarding `CCCCCCN1CCC(CNCc2cccc(Cl)c2)CC1`, the IC50 is 1.22 µM.

In turn, `Cc1cc(NC2CCN(CC3CCCCC3)C2)nc(Nc2ccc(Cl)cc2)n1` (centres undefined) gave an IC50 of 0.4 µM. This IC50 lies about 3-fold lower than the previous one.

In turn, `CC(C)CCN1CCCN(Cc2cccc(NC(=O)c3ccc(Cl)c(Cl)c3)c2)CC1` returned a half-inhibitory concentration (IC50) of 1.02 µM.

`Cc1cc([N+](=O)[O-])ccc1NC(=O)Nc1cccc(C(F)(F)F)c1`: the 50% inhibitory concentration (IC50) came to 0.72 µM.

For the compound `Cc1nc2nc(N)nc(N)c2c(C)c1Cc1ccc(N)cc1`, the 50% inhibitory concentration (IC50) came out at 0.64 µM.

With `CCn1cc(C(=O)O)c(=O)c2cc(F)c(N3CCN(S(=O)(=O)c4ccc(N)cc4)CC3)cc21`, the IC50 was determined as 0.92 µM.

Compound `Cc1cc(OCc2ccncc2)cc2c1C(=O)CC(C)(C)O2` had a half-maximal inhibitory concentration (IC50) of 0.18 µM. Compared with the last compound, the IC50 is about 5.1-fold lower.

`CN(C)CCc1coc2ccc(C(=O)Nc3ccc(-c4ccc(O)cc4)cc3)cc12`: the IC50 was 1.08 µM.

`O=S(=O)(Nc1cc2c(cc1OCc1ccccc1)CCN(C1CCC1)CC2)c1ccc(-c2ccc(Cl)cc2)cc1` registered an IC50 of 1.14 µM.

Compound `COc1cccc(OC)c1OCCCOc1c(C)nc(N)nc1N` displayed a concentration for half-maximal inhibition (IC50) of 0.46 µM.

Turning to `Cn1nc(-c2cccc(CNCc3ccccc3)c2)c2cnc(NC3CCCC3)nc21`, the half-maximal inhibitory concentration (IC50) amounted to 1.26 µM.

As for `CC(C)(C)OC(=O)C1CCCN(Cc2ccc(-c3cccc(-c4nc5ccccc5[nH]4)c3)cc2)C1` (centres undefined), the IC50 came to 0.36 µM.

Take `O=C(Nc1cccc(-c2cccc(-c3nc4ccc(C(F)(F)F)cc4[nH]3)c2)c1)Nc1ccc(F)c(F)c1F`: the half-inhibitory concentration (IC50) came out at 0.12 µM.

Turning to `CC(C)N(CCOc1ccc2c(c1)N(C(=O)Nc1ccc(Cl)c(Cl)c1)CC2)C(C)C`, the 50% inhibitory concentration (IC50) is 0.37 µM.

For the compound `CSc1cccc(NC(=O)c2cc3ccccc3oc2=O)c1`, the 50% inhibitory concentration (IC50) turned out to be 0.83 µM.

`CC1(C)N=C(N)N=C(N)N1CCc1ccccc1` came in with a concentration for half-maximal inhibition (IC50) of 0.05 µM. Compared with the last compound, the IC50 is about 17-fold lower.

On to `CCCCCCCCc1c(C)[nH]c(C)c(I)c1=O`, for which the IC50 is 0.74 µM.

Regarding `Cc1cccc(NC(=O)c2ccc(C(=O)NC3CCN(CC4CCCCC4)C3)cc2)c1` (centres undefined), the half-inhibitory concentration (IC50) came out at 0.92 µM.

With `COc1ccc2nccc([C@@H](O)CN3CCC(NCc4cc5cc(C)ccc5s4)CC3)c2c1`, the IC50 is 0.64 µM.

Take `CC(C)CNCc1ccc(OCc2cccc(COc3ccc(CNCC(C)C)cc3I)c2)c(I)c1`: the IC50 was 0.77 µM. This IC50 and that of the compound before are within 1.5-fold of each other.

Consider `O=C1Nc2cccc3c2C1(CCCCN1CCC(c2cc4ccncc4[nH]2)CC1)CCC3` (centres undefined), for which the concentration for half-maximal inhibition (IC50) was 0.79 µM and 0.91 µM.

`O=C(C=Cc1ccc(Br)cc1)N1CCC(CCN2CCC(c3c[nH]c4ccccc34)CC2)CC1`: the IC50 was determined as 0.92 µM.

In the case of `Cc1cc(CN2CCCC(OC(c3ccc(F)cc3)c3ccc(F)cc3)C2)ccc1O` (centres undefined), the half-maximal inhibitory concentration (IC50) was found to be 0.88 µM.

Regarding `CNC(=O)COc1ccc(Nc2nnc(-c3ccc(C)c(S(=O)(=O)NCC4CCCO4)c3)c3ccccc23)cc1` (centres undefined), the half-inhibitory concentration (IC50) was determined as 0.93 µM.

`CCc1cn(CCS(C)(=O)=O)c2ccc(C(=O)N[C@@H](Cc3ccccc3)[C@H](O)CNC(C)(C)CCCC(C)C)cc12` returned an IC50 of 0.88 µM.

Consider `O=C(/C=C/c1ccc(Cl)c(Cl)c1)NCC[C@@H]1C[C@H]1CCN1CCC(c2c[nH]c3ccccc23)CC1`, for which the IC50 was 0.79 µM.

The compound `CCN(CC)CCCC(C)Nc1c2ccccc2nc2c1ccc1ccccc12` (centres undefined) gave a half-maximal inhibitory concentration (IC50) of 1.09 µM.

For `O=c1cc(NCCCNCc2scc3c(Cl)cc(C(F)(F)F)nc23)[nH]c2ccccc12`, the IC50 turned out to be 0.75 µM.

`CN(C)CCOc1cc(NC(=O)Nc2ccc(-c3ccncc3)c(C(F)(F)F)c2)ccc1Cl` returned a 50% inhibitory concentration (IC50) of 0.99 µM.

Consider `c1ccc2cc3c(NCCN4CCOCC4)ccnc3cc2c1`, for which the IC50 was 0.17 µM.

Compound `COc1ccc(Nc2nccc(-c3c(-c4cccc(NC(=O)c5c(F)cccc5F)c4)nn4ccccc34)n2)cc1Cl` came in with an IC50 of 0.28 µM.

Take `CC(C)C[C@@H](C(=O)Nc1ccc(Cc2ccc(NC(=O)[C@H](CC(C)C)N(C)C(=O)OC(C)(C)C)cc2)cc1)N(C)C(=O)OC(C)(C)C`: the concentration for half-maximal inhibition (IC50) came out at 0.82 µM. Compared with the last compound, the IC50 is about 2.9-fold higher.

On to `COc1ccc(C2N=C(N)N=C(N)N2c2ccc(Cl)cc2)cc1OC` (centres undefined), for which the IC50 came to 1 µM.

`COc1ccc(Nc2nc(NN=Cc3cc(Cl)ccc3O)nc(Nc3ccccc3)n2)cc1` registered an IC50 of 0.65 µM.

The compound `CCc1cn2c3c(cc(C(=O)N[C@@H](Cc4cccc(F)c4)[C@H](O)CNC4CCOCC4)cc13)N(C)S(=O)(=O)CC2` registered an IC50 of 0.07 µM.

Turning to `O=C(NCCNc1ccnc(Nc2ccc(F)cc2)n1)Nc1ccccc1F`, the IC50 came to 0.76 µM.

Compound `COC(=O)c1cccc(NC(=O)NC2CCN(c3ccnc(NCc4ccc(F)cc4)n3)CC2)c1` had an IC50 of 0.81 µM.

`O=C(/C=C/c1ccc(Cl)c(Cl)c1)NCCCCCN1CCCC(CNS(=O)(=O)c2ccc(F)cc2)C1` (centres undefined): the concentration for half-maximal inhibition (IC50) was 1.16 µM. The IC50 values of the last two compounds are within 1.5-fold of each other.

`Cc1nc(-c2ccc(-c3ccc(C(=O)Nc4ccc(C(C)C)c(OCCN(C)C)c4)cc3)c(C)c2)no1`: the half-inhibitory concentration (IC50) was determined as 0.87 µM.

For the compound `COc1ccc2nccc([C@@H](O)CN3CCC(NC(=O)c4ccc(Cl)c(Cl)c4)CC3)c2c1`, the IC50 was determined as 0.61 µM.

Consider `CCn1c(C)c(C)c2cc(C(=O)Nc3ccon3)ccc21`, for which the IC50 was determined as 0.73 µM.
